Laboratory results from paper PMC4490784, “Compensatory induction of MYC expression by sustained CDK9 inhibition via a BRD4-dependent mechanism” (eLife, 2015).

Legend:
Assay in all cases: KINOMEscan binding assay
[1] = target: T1, ABL1(H396P)-phosphorylated (Homo sapiens, UniProt P00519, H396P); conditions: 1 µM i-CDK9; read-out: % Retention on Solid Support
T1 construct: purchased DiscoveRx KINOMEscan
Summary of the method: (§1)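 Readout reflects displacement of an active site-directed ligand, scored across more than 400 kinases with i-CDK9 at 1 µM and at 10 µM.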

ACVR1B = target: T2, ACVR1B (Homo sapiens, UniProt P36896); conditions: read-out: % Retention on Solid Support
T2 construct: purchased DiscoveRx KINOMEscan
Summary of the method: as §1

CDK3 = target: T3, CDK3 (Homo sapiens, UniProt Q00526)
T3 construct: purchased DiscoveRx KINOMEscan
Summary of the method: as §1

DAPK2 = target: T4, DAPK2 (Homo sapiens, UniProt Q9UIK4); conditions: read-out: % Retention on Solid Support
T4 construct: purchased DiscoveRx KINOMEscan
Summary of the method: as §1

DCAMKL2 = target: T5, DCAMKL2 (Homo sapiens, UniProt Q8N568); conditions: read-out: % Retention on Solid Support
T5 construct: purchased DiscoveRx KINOMEscan
Summary of the method: as §1

DDR1 = target: T6, DDR1 (Homo sapiens, UniProt Q08345); conditions: read-out: % Retention on Solid Support
T6 construct: purchased DiscoveRx KINOMEscan
Summary of the method: as §1

DYRK2 = target: T7, DYRK2 (Homo sapiens, UniProt Q92630); conditions: read-out: % Retention on Solid Support
T7 construct: purchased DiscoveRx KINOMEscan
T7 sequence (Q92630 1-601): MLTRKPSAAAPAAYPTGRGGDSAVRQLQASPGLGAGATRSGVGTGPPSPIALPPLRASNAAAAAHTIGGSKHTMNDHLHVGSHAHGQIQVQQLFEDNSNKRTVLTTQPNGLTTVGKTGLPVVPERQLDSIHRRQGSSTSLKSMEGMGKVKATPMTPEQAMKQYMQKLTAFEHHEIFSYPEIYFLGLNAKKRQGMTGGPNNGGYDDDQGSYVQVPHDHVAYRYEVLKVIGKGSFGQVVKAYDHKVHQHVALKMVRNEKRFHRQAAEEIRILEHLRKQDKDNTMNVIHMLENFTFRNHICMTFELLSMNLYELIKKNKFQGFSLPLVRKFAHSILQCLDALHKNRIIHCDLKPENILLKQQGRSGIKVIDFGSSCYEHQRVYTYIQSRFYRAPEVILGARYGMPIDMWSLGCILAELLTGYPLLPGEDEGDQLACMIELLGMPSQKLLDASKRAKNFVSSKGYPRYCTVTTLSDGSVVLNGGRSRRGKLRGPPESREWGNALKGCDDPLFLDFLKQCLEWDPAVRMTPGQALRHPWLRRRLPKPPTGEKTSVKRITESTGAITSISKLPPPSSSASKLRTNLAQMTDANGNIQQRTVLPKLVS
Summary of the method: as §1

EGFR(S752-I759del) = target: T8, EGFR(S752-I759del) (Homo sapiens, UniProt P00533, DEL752-759)
T8 construct: purchased DiscoveRx KINOMEscan
Summary of the method: as §1

FGFR2 = target: T9, FGFR2 (Homo sapiens, UniProt P21802); conditions: read-out: % Retention on Solid Support
T9 construct: purchased DiscoveRx KINOMEscan
Summary of the method: as §1

FRK = target: T10, FRK (Homo sapiens, UniProt P42685); conditions: read-out: % Retention on Solid Support
T10 construct: purchased DiscoveRx KINOMEscan
Summary of the method: as §1

GRK1 = target: T11, GRK1 (Homo sapiens, UniProt Q15835); conditions: read-out: % Retention on Solid Support
T11 construct: purchased DiscoveRx KINOMEscan
Summary of the method: as §1

HIPK3 = target: T12, HIPK3 (Homo sapiens, UniProt Q9H422); conditions: read-out: % Retention on Solid Support
T12 construct: purchased DiscoveRx KINOMEscan
Summary of the method: as §1

INSRR = target: T13, INSRR (Homo sapiens, UniProt P14616); conditions: read-out: % Retention on Solid Support
T13 construct: purchased DiscoveRx KINOMEscan
Summary of the method: as §1

LATS1 = target: T14, LATS1 (Homo sapiens, UniProt O95835); conditions: read-out: % Retention on Solid Support
T14 construct: purchased DiscoveRx KINOMEscan
Summary of the method: as §1

MKK7 = target: T15, MKK7 (Homo sapiens, UniProt O14733); conditions: 1 µM i-CDK9
T15 construct: purchased DiscoveRx KINOMEscan
Summary of the method: as §1

MST2 = target: T16, MST2 (Homo sapiens, UniProt Q13188); conditions: read-out: % Retention on Solid Support
T16 construct: purchased DiscoveRx KINOMEscan
Summary of the method: as §1

MYLK2 = target: T17, MYLK2 (Homo sapiens, UniProt Q9H1R3); conditions: read-out: % Retention on Solid Support
T17 construct: purchased DiscoveRx KINOMEscan
Summary of the method: as §1

PAK1 = target: T18, PAK1 (Homo sapiens, UniProt Q13153); conditions: read-out: % Retention on Solid Support
T18 construct: purchased DiscoveRx KINOMEscan
Summary of the method: as §1

PCTK3 = target: T19, PCTK3 (Homo sapiens, UniProt Q07002); conditions: read-out: % Retention on Solid Support
T19 construct: purchased DiscoveRx KINOMEscan
Summary of the method: as §1

PIK4CB = target: T20, PIK4CB (Homo sapiens, UniProt Q9UBF8); conditions: read-out: % Retention on Solid Support
T20 construct: purchased DiscoveRx KINOMEscan
Summary of the method: as §1

PRKCQ = target: T21, PRKCQ (Homo sapiens, UniProt Q04759); conditions: read-out: % Retention on Solid Support
T21 construct: purchased DiscoveRx KINOMEscan
Summary of the method: as §1

RAF1 = target: T22, RAF1 (Homo sapiens, UniProt P04049); conditions: read-out: % Retention on Solid Support
T22 construct: purchased DiscoveRx KINOMEscan
Summary of the method: as §1

ULK2 = target: T23, ULK2 (Homo sapiens, UniProt Q8IYT8); conditions: read-out: % Retention on Solid Support
T23 construct: purchased DiscoveRx KINOMEscan
Summary of the method: as §1

VRK2 = target: T24, VRK2 (Homo sapiens, UniProt Q86Y07); conditions: 1 µM i-CDK9; read-out: % Retention on Solid Support
T24 construct: purchased DiscoveRx KINOMEscan
Summary of the method: as §1

T16 sequence (Q13188 whole entry): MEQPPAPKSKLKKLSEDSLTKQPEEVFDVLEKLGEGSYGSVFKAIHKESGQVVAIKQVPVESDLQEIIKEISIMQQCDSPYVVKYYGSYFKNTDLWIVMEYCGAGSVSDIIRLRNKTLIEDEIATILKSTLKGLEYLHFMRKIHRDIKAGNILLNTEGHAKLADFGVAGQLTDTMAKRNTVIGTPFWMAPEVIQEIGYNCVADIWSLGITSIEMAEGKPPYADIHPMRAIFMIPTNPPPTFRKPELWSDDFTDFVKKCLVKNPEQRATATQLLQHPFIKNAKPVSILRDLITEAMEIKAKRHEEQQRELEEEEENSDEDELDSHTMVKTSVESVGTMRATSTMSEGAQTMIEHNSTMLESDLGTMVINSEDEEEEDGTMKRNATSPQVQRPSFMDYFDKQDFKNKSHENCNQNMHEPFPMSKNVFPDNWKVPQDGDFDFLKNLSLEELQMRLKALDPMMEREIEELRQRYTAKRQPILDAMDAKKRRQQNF
T9 sequence (P21802 22-821): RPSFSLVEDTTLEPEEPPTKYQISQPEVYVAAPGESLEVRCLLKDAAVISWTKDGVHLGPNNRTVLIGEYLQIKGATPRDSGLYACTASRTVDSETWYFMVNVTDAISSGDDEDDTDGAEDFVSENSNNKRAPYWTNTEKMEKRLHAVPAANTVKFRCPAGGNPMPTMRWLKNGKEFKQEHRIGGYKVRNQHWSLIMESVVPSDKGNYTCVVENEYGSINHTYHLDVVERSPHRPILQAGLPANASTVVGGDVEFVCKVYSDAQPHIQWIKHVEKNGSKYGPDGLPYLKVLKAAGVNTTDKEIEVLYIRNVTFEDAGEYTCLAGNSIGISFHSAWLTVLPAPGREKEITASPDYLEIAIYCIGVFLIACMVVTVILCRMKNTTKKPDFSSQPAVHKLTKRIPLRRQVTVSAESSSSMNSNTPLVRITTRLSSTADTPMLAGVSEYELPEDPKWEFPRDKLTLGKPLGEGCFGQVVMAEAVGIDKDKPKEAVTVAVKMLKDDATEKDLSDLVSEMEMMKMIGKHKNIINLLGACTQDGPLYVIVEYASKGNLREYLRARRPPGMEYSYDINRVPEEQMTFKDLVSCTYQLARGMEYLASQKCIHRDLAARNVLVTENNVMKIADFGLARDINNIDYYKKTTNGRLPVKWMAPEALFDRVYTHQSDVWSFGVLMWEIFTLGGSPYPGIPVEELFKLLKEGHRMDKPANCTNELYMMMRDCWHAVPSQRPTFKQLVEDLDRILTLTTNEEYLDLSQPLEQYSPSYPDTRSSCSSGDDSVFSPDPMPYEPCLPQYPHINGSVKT
T18 sequence (Q13153 whole entry): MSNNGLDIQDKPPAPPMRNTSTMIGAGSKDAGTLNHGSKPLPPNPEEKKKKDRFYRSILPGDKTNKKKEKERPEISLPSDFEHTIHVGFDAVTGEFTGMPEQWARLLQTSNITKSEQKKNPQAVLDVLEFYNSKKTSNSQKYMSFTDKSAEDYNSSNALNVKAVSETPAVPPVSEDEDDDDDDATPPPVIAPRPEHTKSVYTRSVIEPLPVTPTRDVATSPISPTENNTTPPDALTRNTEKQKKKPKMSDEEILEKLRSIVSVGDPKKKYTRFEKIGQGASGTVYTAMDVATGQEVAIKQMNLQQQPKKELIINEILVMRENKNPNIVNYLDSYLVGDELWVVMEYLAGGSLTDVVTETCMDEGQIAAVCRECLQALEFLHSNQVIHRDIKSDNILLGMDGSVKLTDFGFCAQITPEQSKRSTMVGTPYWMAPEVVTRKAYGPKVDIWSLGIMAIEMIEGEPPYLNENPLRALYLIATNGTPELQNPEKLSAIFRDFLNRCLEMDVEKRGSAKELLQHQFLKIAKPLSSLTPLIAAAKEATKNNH
T14 sequence (O95835 whole entry): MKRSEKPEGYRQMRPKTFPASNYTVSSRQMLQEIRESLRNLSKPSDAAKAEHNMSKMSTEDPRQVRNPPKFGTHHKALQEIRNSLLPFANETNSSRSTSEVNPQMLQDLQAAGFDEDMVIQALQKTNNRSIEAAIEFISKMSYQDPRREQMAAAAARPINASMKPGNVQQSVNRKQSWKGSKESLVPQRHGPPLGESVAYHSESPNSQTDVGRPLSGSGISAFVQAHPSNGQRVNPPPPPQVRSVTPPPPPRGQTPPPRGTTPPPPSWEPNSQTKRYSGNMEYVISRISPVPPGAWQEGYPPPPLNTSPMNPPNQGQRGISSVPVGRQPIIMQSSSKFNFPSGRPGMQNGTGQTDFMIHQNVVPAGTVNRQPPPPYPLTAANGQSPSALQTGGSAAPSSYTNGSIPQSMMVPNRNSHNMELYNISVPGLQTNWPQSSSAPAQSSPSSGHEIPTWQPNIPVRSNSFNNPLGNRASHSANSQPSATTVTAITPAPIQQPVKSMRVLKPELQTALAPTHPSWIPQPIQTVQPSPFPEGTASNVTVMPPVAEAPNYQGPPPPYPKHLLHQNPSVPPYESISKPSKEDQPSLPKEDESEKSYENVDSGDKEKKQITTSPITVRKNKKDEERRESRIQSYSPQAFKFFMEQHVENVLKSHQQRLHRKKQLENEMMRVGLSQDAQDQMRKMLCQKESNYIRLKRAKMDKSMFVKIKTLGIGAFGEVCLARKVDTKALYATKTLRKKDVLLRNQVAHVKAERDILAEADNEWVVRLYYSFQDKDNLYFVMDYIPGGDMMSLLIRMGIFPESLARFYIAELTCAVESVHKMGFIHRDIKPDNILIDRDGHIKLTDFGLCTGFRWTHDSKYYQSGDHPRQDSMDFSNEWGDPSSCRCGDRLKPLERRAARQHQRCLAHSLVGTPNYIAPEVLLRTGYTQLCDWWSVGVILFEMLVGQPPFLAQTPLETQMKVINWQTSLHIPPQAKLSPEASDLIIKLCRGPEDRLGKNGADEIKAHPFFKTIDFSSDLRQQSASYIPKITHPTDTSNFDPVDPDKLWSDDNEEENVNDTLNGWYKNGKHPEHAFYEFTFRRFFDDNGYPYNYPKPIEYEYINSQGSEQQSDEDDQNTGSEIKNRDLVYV
T19 sequence (Q07002 whole entry): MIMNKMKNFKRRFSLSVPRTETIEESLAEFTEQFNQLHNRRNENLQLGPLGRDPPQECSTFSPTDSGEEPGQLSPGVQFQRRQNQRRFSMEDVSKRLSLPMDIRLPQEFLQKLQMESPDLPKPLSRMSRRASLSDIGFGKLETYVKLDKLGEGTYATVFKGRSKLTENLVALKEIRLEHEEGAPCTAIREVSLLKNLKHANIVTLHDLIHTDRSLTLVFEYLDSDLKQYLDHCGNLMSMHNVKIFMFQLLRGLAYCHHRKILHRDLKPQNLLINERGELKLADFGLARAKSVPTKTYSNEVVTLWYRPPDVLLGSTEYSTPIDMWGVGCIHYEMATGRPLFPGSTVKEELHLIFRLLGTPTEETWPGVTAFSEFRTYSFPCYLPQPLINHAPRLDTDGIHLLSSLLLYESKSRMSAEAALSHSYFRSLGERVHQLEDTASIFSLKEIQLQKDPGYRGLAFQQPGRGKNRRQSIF
T3 sequence (Q00526 whole entry): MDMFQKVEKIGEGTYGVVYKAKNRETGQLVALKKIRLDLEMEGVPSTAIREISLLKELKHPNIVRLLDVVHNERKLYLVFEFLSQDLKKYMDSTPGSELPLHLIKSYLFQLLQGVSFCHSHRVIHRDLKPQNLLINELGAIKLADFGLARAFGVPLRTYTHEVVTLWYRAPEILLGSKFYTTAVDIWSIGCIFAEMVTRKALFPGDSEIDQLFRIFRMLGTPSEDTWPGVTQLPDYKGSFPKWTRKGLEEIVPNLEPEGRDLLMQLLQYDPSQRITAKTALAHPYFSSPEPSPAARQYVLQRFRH
T21 sequence (Q04759 whole entry): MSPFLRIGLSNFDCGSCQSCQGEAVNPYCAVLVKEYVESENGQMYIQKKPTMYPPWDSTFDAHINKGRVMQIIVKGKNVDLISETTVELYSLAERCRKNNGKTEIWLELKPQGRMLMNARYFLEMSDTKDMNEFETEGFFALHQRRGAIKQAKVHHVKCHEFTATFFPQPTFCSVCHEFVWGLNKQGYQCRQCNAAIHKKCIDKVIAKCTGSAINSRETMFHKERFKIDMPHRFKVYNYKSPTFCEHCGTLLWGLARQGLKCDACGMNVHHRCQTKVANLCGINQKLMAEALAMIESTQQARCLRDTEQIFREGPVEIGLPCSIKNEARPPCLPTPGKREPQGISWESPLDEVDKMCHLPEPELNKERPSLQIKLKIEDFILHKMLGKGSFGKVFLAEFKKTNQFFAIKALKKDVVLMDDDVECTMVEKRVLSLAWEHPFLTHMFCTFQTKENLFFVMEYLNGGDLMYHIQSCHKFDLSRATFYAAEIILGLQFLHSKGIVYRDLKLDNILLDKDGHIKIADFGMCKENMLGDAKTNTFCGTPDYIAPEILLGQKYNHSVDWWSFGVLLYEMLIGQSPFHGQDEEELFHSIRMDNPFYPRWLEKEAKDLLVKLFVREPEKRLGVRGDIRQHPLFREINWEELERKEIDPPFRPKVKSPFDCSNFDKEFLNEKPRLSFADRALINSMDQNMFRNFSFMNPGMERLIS
T4 sequence (Q9UIK4 whole entry): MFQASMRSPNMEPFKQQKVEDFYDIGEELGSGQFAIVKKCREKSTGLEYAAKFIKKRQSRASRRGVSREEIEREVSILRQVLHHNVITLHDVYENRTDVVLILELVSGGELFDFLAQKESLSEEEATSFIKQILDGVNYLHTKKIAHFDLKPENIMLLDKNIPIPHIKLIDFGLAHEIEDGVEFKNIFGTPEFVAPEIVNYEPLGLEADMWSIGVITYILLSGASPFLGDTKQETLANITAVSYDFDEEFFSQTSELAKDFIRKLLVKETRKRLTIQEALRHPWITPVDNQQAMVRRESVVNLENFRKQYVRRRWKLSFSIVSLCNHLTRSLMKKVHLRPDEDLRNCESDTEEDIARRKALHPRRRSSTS

## N[C@H]1CC[C@H](Nc2cc(-c3cccc(NCc4cccc(F)c4)n3)c(Cl)cn2)CC1 [i-CDK9, N2′-(trans-4-aminocyclohexyl)-5′-chloro-N6-(3-fluorobenzyl)-2,4′-bipyridine-2′,6-diamine]
[1]
  remaining binding at 1 µM: 92%
ACVR1B; 1 µM i-CDK9
  remaining binding at 1 µM: 69%
ACVR1B; 10 µM i-CDK9
  remaining binding at 10 µM: 100%
CDK3; 1 µM i-CDK9
  % Retention on Solid Support: 57%
CDK3; 10 µM i-CDK9
  % Retention on Solid Support: 16%
DAPK2; 1 µM i-CDK9
  remaining binding at 1 µM: 90%
DAPK2; 10 µM i-CDK9
  remaining binding at 10 µM: 80%
DCAMKL2; 1 µM i-CDK9
  remaining binding at 1 µM: 100%
DCAMKL2; 10 µM i-CDK9
  remaining binding at 10 µM: 65%
DDR1; 1 µM i-CDK9
  remaining binding at 1 µM: 100%
DDR1; 10 µM i-CDK9
  remaining binding at 10 µM: 92%
DYRK2; 1 µM i-CDK9
  remaining binding at 1 µM: 7.1%
DYRK2; 10 µM i-CDK9
  remaining binding at 10 µM: 33%
EGFR(S752-I759del); 1 µM i-CDK9
  % Retention on Solid Support: 77%
EGFR(S752-I759del); 10 µM i-CDK9
  % Retention on Solid Support: 53%
FGFR2; 1 µM i-CDK9
  remaining binding at 1 µM: 97%
FGFR2; 10 µM i-CDK9
  remaining binding at 10 µM: 100%
FRK; 1 µM i-CDK9
  remaining binding at 1 µM: 72%
FRK; 10 µM i-CDK9
  remaining binding at 10 µM: 100%
GRK1; 1 µM i-CDK9
  remaining binding at 1 µM: 95%
GRK1; 10 µM i-CDK9
  remaining binding at 10 µM: 100%
HIPK3; 1 µM i-CDK9
  remaining binding at 1 µM: 100%
HIPK3; 10 µM i-CDK9
  remaining binding at 10 µM: 89%
INSRR; 1 µM i-CDK9
  remaining binding at 1 µM: 92%
INSRR; 10 µM i-CDK9
  remaining binding at 10 µM: 97%
LATS1; 1 µM i-CDK9
  remaining binding at 1 µM: 100%
LATS1; 10 µM i-CDK9
  remaining binding at 10 µM: 100%
MKK7
  % Retention on Solid Support: 100%
MST2; 1 µM i-CDK9
  remaining binding at 1 µM: 72%
MST2; 10 µM i-CDK9
  remaining binding at 10 µM: 100%
MYLK2; 1 µM i-CDK9
  remaining binding at 1 µM: 100%
MYLK2; 10 µM i-CDK9
  remaining binding at 10 µM: 88%
PAK1; 1 µM i-CDK9
  remaining binding at 1 µM: 100%
PAK1; 10 µM i-CDK9
  remaining binding at 10 µM: 100%
PCTK3; 1 µM i-CDK9
  remaining binding at 1 µM: 33%
PCTK3; 10 µM i-CDK9
  remaining binding at 10 µM: 0.15%
PIK4CB; 1 µM i-CDK9
  remaining binding at 1 µM: 29%
PIK4CB; 10 µM i-CDK9
  remaining binding at 10 µM: 84%
PRKCQ; 1 µM i-CDK9
  remaining binding at 1 µM: 100%
PRKCQ; 10 µM i-CDK9
  remaining binding at 10 µM: 88%
RAF1; 1 µM i-CDK9
  remaining binding at 1 µM: 100%
RAF1; 10 µM i-CDK9
  remaining binding at 10 µM: 100%
ULK2; 1 µM i-CDK9
  remaining binding at 1 µM: 100%
ULK2; 10 µM i-CDK9
  remaining binding at 10 µM: 100%
VRK2
  remaining binding at 1 µM: 100%
